In assay [1] the target is T1, Chymotrypsinogen B (Homo sapiens, UniProt P17538). Description: Time dependent loss of inhibitory activity toward alpha-chymotrypsin (1.6 uM concentration) at a pH of 7.8 by incubation method; no inactivation observed.
For assay [2], the target named is T1, Chymotrypsinogen B. Description: Irreversible inhibitory activity toward alpha-chymotrypsin (1.6 uM concentration) at a pH of 7.8 by incubation method. reversible competitive inactivation.
Assay [3] deals with T1, Chymotrypsinogen B. Description: Reversible inhibitory activity toward alpha-chymotrypsin (5 nM concentration) at a pH of 7.8 by progress curve method.; no inactivation observed.
The target in assay [4] is T1, Chymotrypsinogen B. In words: Irreversible inhibitory activity toward alpha-chymotrypsin (1.6 uM concentration) at a pH of 7.8 by incubation method.
For assay [5], the target named is T1, Chymotrypsinogen B. Description: Reversible inhibitory activity toward alpha-chymotrypsin (5 nM concentration) at a pH of 7.8 by progress curve method.
Assay [6] deals with T1, Chymotrypsinogen B.
For assay [7], the target named is T1, Chymotrypsinogen B. In words: Reversible inhibitory activity toward alpha-chymotrypsin (5 nM concentration) at a pH of 7.8 by progress curve method; no inactivation observed.
Assay [8] deals with T1, Chymotrypsinogen B. The source holds these as a separate data set.

Experimental findings from ChEMBL document CHEMBL1159164, “Inactivation of serine protease, -chymotrypsin by fluorinated phenylalanine analogues” (Bioorg Med Chem Lett, 1996) are described below.

T1 sequence (P17538 34-164 limits assumed, other chains not shown): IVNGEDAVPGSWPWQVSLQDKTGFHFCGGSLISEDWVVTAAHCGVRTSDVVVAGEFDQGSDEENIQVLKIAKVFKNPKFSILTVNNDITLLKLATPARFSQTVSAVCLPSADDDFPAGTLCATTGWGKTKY
T1 sequence (P17538 167-263 limits assumed, other chains not shown): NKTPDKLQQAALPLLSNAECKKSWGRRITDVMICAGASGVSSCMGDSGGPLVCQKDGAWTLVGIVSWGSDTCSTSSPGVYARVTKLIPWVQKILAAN

For the compound `COC(=O)C(F)[C@H](Cc1ccccc1)NC(C)=O` (stereo in doubt; anti) [listing 1 of 2 here], the “K obs / 1” value in assay [1] is “No inactivation”. The same compound had a [I] in assay [2] of 6.25 mM.
On to `CC(=O)N[C@@H](Cc1ccccc1)C(C)(F)F`, for which the Ki result in assay [3] is reported as “No inactivation”. Further, the “K obs / 1” value in assay [1] was “No inactivation”. In assay [4], the [I] came to 4.85 mM.
Take `COC(=O)C(F)[C@H](Cc1ccccc1)NC(C)=O` (stereo in doubt; syn) [listing 1 of 2 here]: in assay [1], the “K obs / 1” value is “No inactivation”. For the same compound, the [I] in assay [2] worked out at 4.58 mM.
In turn, `COC(=O)C(F)(F)[C@H](Cc1ccccc1)NC(C)=O` yielded a Ki in assay [5] of 0.034 mM. Also, the [I] in assay [2] was 6.86 mM. Further, the “K obs / 1” value in assay [6] is “No inactivation”.
As for `C=CC(F)[C@H](Cc1ccccc1)NC(C)=O` (some centres not stated), the Ki entry in assay [7] is “No inactivation”. The “K obs / 1” value in assay [1] was “No inactivation”. In addition, the [I] in assay [4] was 9.73 mM.
In assay [5], `C=CC(F)(F)[C@H](Cc1ccccc1)NC(C)=O` had a Ki of 0.46 mM. Also, the [I] in assay [8] was 8.7 mM.
`COC(=O)C(F)[C@H](Cc1ccccc1)NC(C)=O` (stereo in doubt; anti) [listing 2 of 2 here] yielded a Ki in assay [5] of 6.44 mM.
Compound `COC(=O)C(F)[C@H](Cc1ccccc1)NC(C)=O` (stereo in doubt; syn) [listing 2 of 2 here] gave a Ki in assay [5] of 19.1 mM.
